Test results from ChEMBL document CHEMBL1201862, “PubChem BioAssay data set” (2004).
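Assay format: 96-well plates, 48-hour exposure. At the GI50, growth is halved.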 Calls of active or inactive are those of the source. No stated cut-off is given here; in the data, active = GI50 up to about 1.1 µM and inactive = higher.

Experiments:
Test in all cases: DTP human tumour cell line panel, 48 h
786-0 = tested on: 786-0
A498 = tested on: A498
A549 = tested on: A549
ACHN = tested on: ACHN
CAKI-1 = tested on: CAKI-1
DLD-1 = tested on: DLD-1
DMS-114 = tested on: DMS-114
EKVX = tested on: EKVX
HCT-116 = tested on: HCT-116
HCT-15 = tested on: HCT-15
HOP-18 = tested on: HOP-18
HOP-62 = tested on: HOP-62
HOP-92 = tested on: HOP-92
HT-29 = tested on: HT-29
KM-20L2 = tested on: KM-20L2
KM12 = tested on: KM12
LXFL 529 = tested on: LXFL 529
M14 = tested on: M14
Malme-3M = tested on: Malme-3M
NCI-H226 = tested on: NCI-H226
NCI-H23 = tested on: NCI-H23
NCI-H460 = tested on: NCI-H460
NCI-H522 = tested on: NCI-H522
OVCAR-3 = tested on: OVCAR-3
OVCAR-5 = tested on: OVCAR-5
OVCAR-8 = tested on: OVCAR-8
RPMI-8226 = tested on: RPMI-8226
SF-268 = tested on: SF-268
SF-539 = tested on: SF-539
SK-MEL-28 = tested on: SK-MEL-28
SK-MEL-2 = tested on: SK-MEL-2
SK-MEL-5 = tested on: SK-MEL-5
SK-OV-3 = tested on: SK-OV-3
SN12C = tested on: SN12C
SNB-19 = tested on: SNB-19
SNB-75 = tested on: SNB-75
SNB-78 = tested on: SNB-78
SR = tested on: SR
SW-620 = tested on: SW-620
TK-10 = tested on: TK-10
U-251 = tested on: U-251
UACC-62 = tested on: UACC-62
UO-31 = tested on: UO-31
XF498 = tested on: XF498
CCRF-CEM = tested on: CCRF-CEM
COLO 205 = tested on: COLO 205
DMS-273 = tested on: DMS-273
HCC 2998 = tested on: HCC 2998
HL-60 = tested on: HL-60
IGROV-1 = tested on: IGROV-1
K562 = tested on: K562
LOX IMVI = tested on: LOX IMVI
M19-MEL = tested on: M19-MEL
MCF7 = tested on: MCF7
MOLT-4 = tested on: MOLT-4
NCI/ADR-RES = tested on: NCI/ADR-RES
RXF 393 = tested on: RXF 393
SF-295 = tested on: SF-295
UACC-257 = tested on: UACC-257
OVCAR-4 = tested on: OVCAR-4

## O=C(N/C(=C\c1cccc([N+](=O)[O-])c1)c1nc2c3c(ccc2[nH]1)C(=O)c1ccccc1C3=O)c1ccccc1
786-0
  GI50: 26.1 µM (inactive)
A498
  GI50: 83 µM (inactive)
A549
  GI50: 30.9 µM (inactive)
ACHN
  GI50: 16.6 µM (inactive)
CAKI-1
  GI50: 7.18 µM (inactive)
DLD-1
  GI50: 12.2 µM (inactive)
DMS-114
  GI50: 26.4 µM (inactive)
EKVX
  GI50: 12.8 µM (inactive)
HCT-116
  GI50: 31.6 µM (inactive)
HCT-15
  GI50: 15 µM
HOP-18
  GI50: > 100 µM (inactive)
HOP-62
  GI50: 37.8 µM (inactive)
HOP-92
  GI50: 32.4 µM (inactive)
HT-29
  GI50: 35.6 µM (inactive)
KM-20L2
  GI50: 30.2 µM (inactive)
KM12
  GI50: 14.5 µM (inactive)
LXFL 529
  GI50: 16 µM (inactive)
M14
  GI50: 45.5 µM (inactive)
Malme-3M
  GI50: 40.7 µM (inactive)
NCI-H226
  GI50: 14 µM (inactive)
NCI-H23
  GI50: 30.3 µM (inactive)
NCI-H460
  GI50: 24.7 µM (inactive)
NCI-H522
  GI50: 16.5 µM (inactive)
OVCAR-3
  GI50: 49.1 µM (inactive)
OVCAR-5
  GI50: 26.5 µM (inactive)
OVCAR-8
  GI50: 36.5 µM (inactive)
RPMI-8226
  GI50: 14.1 µM (inactive)
SF-268
  GI50: 17.8 µM (inactive)
SF-539
  GI50: 21.4 µM (inactive)
SK-MEL-28
  GI50: 19.9 µM (inactive)
SK-MEL-2
  GI50: 35 µM (inactive)
SK-MEL-5
  GI50: 31.2 µM (inactive)
SK-OV-3
  GI50: 6.78 µM (inactive)
SN12C
  GI50: 28 µM (inactive)
SNB-19
  GI50: 41.4 µM (inactive)
SNB-75
  GI50: 58.6 µM (inactive)
SNB-78
  GI50: > 100 µM (inactive)
SR
  GI50: 5.86 µM (inactive)
SW-620
  GI50: 45.5 µM (inactive)
TK-10
  GI50: 20.2 µM (inactive)
U-251
  GI50: 34.8 µM (inactive)
UACC-62
  GI50: 55.2 µM (inactive)
UO-31
  GI50: > 100 µM (inactive)
XF498
  GI50: 57.9 µM (inactive)

## CC(=O)NC1=C[C@@H]([C@H]2COC(C)(C)O2)OC1=O
A498
  GI50: > 100 µM (inactive)
A549
  GI50: > 100 µM (inactive)
CAKI-1
  GI50: > 100 µM (inactive)
CCRF-CEM
  GI50: > 100 µM (inactive)
COLO 205
  GI50: > 100 µM (inactive)
DLD-1
  GI50: > 100 µM (inactive)
DMS-114
  GI50: > 100 µM (inactive)
DMS-273
  GI50: > 100 µM (inactive)
EKVX
  GI50: > 100 µM (inactive)
HCC 2998
  GI50: 99.3 µM (inactive)
HCT-116
  GI50: > 100 µM (inactive)
HCT-15
  GI50: > 100 µM
HL-60
  GI50: > 100 µM (inactive)
HOP-18
  GI50: > 100 µM (inactive)
HOP-62
  GI50: > 100 µM (inactive)
HOP-92
  GI50: > 100 µM (inactive)
HT-29
  GI50: > 100 µM (inactive)
IGROV-1
  GI50: > 100 µM (inactive)
K562
  GI50: > 100 µM (inactive)
KM-20L2
  GI50: > 100 µM (inactive)
KM12
  GI50: > 100 µM (inactive)
LOX IMVI
  GI50: > 100 µM (inactive)
M19-MEL
  GI50: > 100 µM (inactive)
MCF7
  GI50: > 100 µM (inactive)
MOLT-4
  GI50: > 100 µM (inactive)
Malme-3M
  GI50: > 100 µM (inactive)
NCI-H226
  GI50: > 100 µM (inactive)
NCI-H23
  GI50: > 100 µM (inactive)
NCI-H460
  GI50: > 100 µM (inactive)
NCI-H522
  GI50: > 100 µM (inactive)
NCI/ADR-RES
  GI50: > 100 µM (inactive)
OVCAR-3
  GI50: > 100 µM (inactive)
OVCAR-5
  GI50: > 100 µM (inactive)
OVCAR-8
  GI50: > 100 µM (inactive)
RPMI-8226
  GI50: > 100 µM (inactive)
RXF 393
  GI50: > 100 µM (inactive)
SF-268
  GI50: > 100 µM (inactive)
SF-295
  GI50: > 100 µM (inactive)
SF-539
  GI50: > 100 µM (inactive)
SK-MEL-28
  GI50: > 100 µM (inactive)
SK-MEL-2
  GI50: > 100 µM (inactive)
SK-MEL-5
  GI50: > 100 µM (inactive)
SK-OV-3
  GI50: > 100 µM (inactive)
SN12C
  GI50: > 100 µM (inactive)
SNB-19
  GI50: > 100 µM (inactive)
SNB-75
  GI50: > 100 µM (inactive)
SNB-78
  GI50: > 100 µM (inactive)
SW-620
  GI50: > 100 µM (inactive)
U-251
  GI50: > 100 µM (inactive)
UACC-257
  GI50: > 100 µM (inactive)
UACC-62
  GI50: > 100 µM (inactive)
UO-31
  GI50: > 100 µM (inactive)
XF498
  GI50: > 82.8 µM (inactive)

## O=Cc1c[nH]c2c(=O)[nH]cnc12
786-0
  GI50: > 100 µM (inactive)
A549
  GI50: > 100 µM (inactive)
ACHN
  GI50: > 100 µM (inactive)
CAKI-1
  GI50: > 100 µM (inactive)
CCRF-CEM
  GI50: > 100 µM (inactive)
COLO 205
  GI50: > 100 µM (inactive)
DLD-1
  GI50: > 100 µM (inactive)
DMS-114
  GI50: > 100 µM (inactive)
EKVX
  GI50: > 100 µM (inactive)
HCC 2998
  GI50: > 100 µM (inactive)
HCT-116
  GI50: > 100 µM (inactive)
HCT-15
  GI50: > 100 µM
HL-60
  GI50: > 100 µM (inactive)
HOP-18
  GI50: > 100 µM (inactive)
HOP-62
  GI50: > 100 µM (inactive)
HOP-92
  GI50: > 100 µM (inactive)
HT-29
  GI50: > 100 µM (inactive)
IGROV-1
  GI50: > 100 µM (inactive)
K562
  GI50: > 100 µM (inactive)
KM12
  GI50: > 100 µM (inactive)
LOX IMVI
  GI50: > 100 µM (inactive)
LXFL 529
  GI50: > 100 µM (inactive)
M14
  GI50: > 100 µM (inactive)
M19-MEL
  GI50: > 100 µM (inactive)
MOLT-4
  GI50: > 100 µM (inactive)
Malme-3M
  GI50: > 100 µM (inactive)
NCI-H23
  GI50: > 100 µM (inactive)
NCI-H522
  GI50: > 100 µM (inactive)
OVCAR-3
  GI50: > 100 µM (inactive)
OVCAR-8
  GI50: > 100 µM (inactive)
RPMI-8226
  GI50: > 100 µM (inactive)
RXF 393
  GI50: > 100 µM (inactive)
SF-268
  GI50: > 100 µM (inactive)
SF-295
  GI50: > 100 µM (inactive)
SK-MEL-28
  GI50: > 100 µM (inactive)
SK-MEL-2
  GI50: > 100 µM (inactive)
SK-MEL-5
  GI50: > 100 µM (inactive)
SK-OV-3
  GI50: > 100 µM (inactive)
SN12C
  GI50: > 100 µM (inactive)
SNB-19
  GI50: > 100 µM (inactive)
SNB-75
  GI50: > 100 µM (inactive)
SNB-78
  GI50: > 100 µM (inactive)
SR
  GI50: > 100 µM (inactive)
SW-620
  GI50: > 100 µM (inactive)
TK-10
  GI50: > 100 µM (inactive)
UACC-257
  GI50: > 100 µM (inactive)
UACC-62
  GI50: > 100 µM (inactive)
UO-31
  GI50: > 100 µM (inactive)

## C=C1C(=O)OC2C=C(CCC(C)=O)C(C)C(OC(C)=O)CC12 (centres undefined)
786-0
  GI50: 9.68 µM (inactive)
A498
  GI50: 16.1 µM (inactive)
A549
  GI50: 22.2 µM (inactive)
ACHN
  GI50: 6.84 µM (inactive)
CAKI-1
  GI50: 8.83 µM (inactive)
CCRF-CEM
  GI50: 2.6 µM (inactive)
EKVX
  GI50: 12.9 µM (inactive)
HCC 2998
  GI50: 9.93 µM (inactive)
HCT-116
  GI50: 5.19 µM (inactive)
HCT-15
  GI50: 6.11 µM
HL-60
  GI50: 3.33 µM (inactive)
HOP-18
  GI50: 11.7 µM (inactive)
HOP-62
  GI50: > 10 µM (inactive)
HOP-92
  GI50: 3.99 µM (inactive)
HT-29
  GI50: 11.8 µM (inactive)
IGROV-1
  GI50: 21.5 µM (inactive)
K562
  GI50: 3.86 µM (inactive)
KM-20L2
  GI50: 4.89 µM (inactive)
KM12
  GI50: 16.1 µM (inactive)
LOX IMVI
  GI50: 1.61 µM (inactive)
LXFL 529
  GI50: 0.447 µM (active)
M14
  GI50: 5.42 µM (inactive)
M19-MEL
  GI50: 14.6 µM (inactive)
MOLT-4
  GI50: 6.1 µM (inactive)
Malme-3M
  GI50: 11.2 µM (inactive)
NCI-H226
  GI50: 13.6 µM (inactive)
NCI-H460
  GI50: 18.7 µM (inactive)
OVCAR-3
  GI50: 12.7 µM (inactive)
OVCAR-4
  GI50: 13.1 µM (inactive)
OVCAR-5
  GI50: 16.1 µM (inactive)
OVCAR-8
  GI50: 16.5 µM (inactive)
RPMI-8226
  GI50: 4.52 µM (inactive)
RXF 393
  GI50: 2.41 µM (inactive)
SF-268
  GI50: 16.1 µM (inactive)
SF-295
  GI50: 17.7 µM (inactive)
SF-539
  GI50: 15.2 µM (inactive)
SK-MEL-28
  GI50: 8.26 µM (inactive)
SK-MEL-2
  GI50: 14.2 µM (inactive)
SN12C
  GI50: 15.7 µM (inactive)
SNB-19
  GI50: 17.6 µM (inactive)
SNB-75
  GI50: 10.8 µM (inactive)
SNB-78
  GI50: 7.94 µM (inactive)
SR
  GI50: 11.8 µM (inactive)
SW-620
  GI50: 0.313 µM (active)
TK-10
  GI50: 12 µM (inactive)
U-251
  GI50: 17.1 µM (inactive)
UACC-62
  GI50: 12.6 µM (inactive)
UO-31
  GI50: 13.6 µM (inactive)
XF498
  GI50: 12.9 µM (inactive)
